Assay results published in patent US20100068766A1, “COMPOSITION FOR CLEAVING AND/OR CONNECTING SINGLE STRAND DNA” (WASEDA UNIVERSITY, priority 2007, published 2010).

Columns and labels:
Ev1 protein [1] = biological target: T1, Ev1 protein (Homo sapiens, UniProt Q9UI08); assay: Gel shift method, single-stranded DNA binding activity of the Ev1 protein in the presence of compounds; details: compound 1, 5, 10 and 20 μM; 0.3 μM Ev1 protein; 20 μM φ×174 single-stranded DNA; 37° C., 15 minutes
T1 construct: in accordance with the protocols used in purification of the entire-length Ev1 protein; 6xHis (N, cleaved yes); made in house; host or cells: E. coli BL21 (DE3) codon plus-RP, pET15b vector
T1 sequence (Q9UI08 1-418 isoform Q9UI08-2): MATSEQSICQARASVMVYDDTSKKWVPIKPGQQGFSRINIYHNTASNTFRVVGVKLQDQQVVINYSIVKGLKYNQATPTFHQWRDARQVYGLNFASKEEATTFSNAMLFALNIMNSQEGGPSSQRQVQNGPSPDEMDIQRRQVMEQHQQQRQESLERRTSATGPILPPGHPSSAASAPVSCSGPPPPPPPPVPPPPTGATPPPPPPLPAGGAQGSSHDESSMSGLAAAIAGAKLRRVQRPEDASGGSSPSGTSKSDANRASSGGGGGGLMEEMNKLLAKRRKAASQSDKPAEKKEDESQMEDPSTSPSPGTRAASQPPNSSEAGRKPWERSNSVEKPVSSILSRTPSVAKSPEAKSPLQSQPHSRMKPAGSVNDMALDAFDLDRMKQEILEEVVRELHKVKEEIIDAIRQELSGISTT
Experimental: Moreover, in a gel shift method involving single-stranded DNA binding activity (FIGS. 14b, 15b, 16b, 17b, and 18b), each compound in final concentrations of 1, 5, 10, and 20 μM, a φ×174 single-stranded DNA in a final concentration of 20 μM, and an Ev1 protein in a final concentration of 0.3 μM were added to 20 μl of a reaction solution (20 mM HEPES, 1 mM DTT, 100 μg/ml BSA, and 1 mM MgCl2). The obtained mixture was reacted at 37° C. for 15 minutes. Thereafter, the reaction product was electrophoresed on a 0.8% HGT agarose gel, and DNA was then detected with ethidium bromide.

Ev1 protein [2] = biological target: T1, Ev1 protein; assay: Influence of low molecular weight compounds on single-stranded DNA catenation activity of the Ev1 protein; format: biochemical; details: compound 1, 5, 10 and 20 μM; 4 μM Ev1 protein; 20 μM φ×174 single-stranded DNA; 37° C., 1 hour
Experimental: With regard to the influence of each compound on the catenation activity of the Ev1 protein (FIGS. 14a, 15a, 16, 17a, and 18a), each compound in final concentrations of 1, 5, 10, and 20 μM, a φ×174 single-stranded DNA in a final concentration of 20 μM, and an Ev1 protein in a final concentration of 4 μM were added to 10 μl of a reaction solution (20 mM HEPES, 1 mM DTT, 100 μg/ml BSA, and 1 mM MgCl2). The obtained mixture was reacted at 37° C. for 1 hour. After completion of the reaction, 2 μl of a PK solution (0.2% SDS and 1.3 mg/ml proteinase K) was added to the reaction solution, and the obtained mixture was then reacted at 37° C. for 15 minutes. Thereafter, the reaction product was electrophoresed on a 0.8% HGT agarose gel, and DNA was then detected with SYBR Gold.

Compound	influence on activity of the Ev1 protein to bind to single-stranded DNA (gel shift) (Ev1 protein [1])	effect on single-stranded DNA catenation activity of the Ev1 protein (Ev1 protein [2])
O=S(=O)(O)c1cc(N=C=S)ccc1C=Cc1ccc(N=C=S)cc1S(=O)(=O)O [DIDS]	inhibits the single-stranded DNA binding activity of the Ev1 protein	inhibits the single-stranded DNA catenation activity of the Ev1 protein
Cc1cc(N)c2ccccc2[n+]1CCCCCCCCCC[n+]1c(C)cc(N)c2ccccc21 [dequalinium, dequalinium chloride]	changes the binding manner of the Ev1 protein that binds to a single-stranded DNA	inhibits the single-stranded DNA catenation activity of the Ev1 protein
CC[C@@]1(O)C[C@H](O[C@H]2C[C@H](N(C)C)[C@H](O[C@H]3C[C@H](O)[C@H](O[C@H]4CCC(=O)[C@H](C)O4)[C@H](C)O3)[C@H](C)O2)c2c(cc3c(c2O)C(=O)c2c(O)cccc2C3=O)[C@H]1C(=O)OC [aclarubicin]	does not change the activity of the Ev1 protein to bind to circular single-stranded DNA	inhibits the activity of an Ev1 protein to catenate single-stranded DNA molecules
Nc1ccc2c(=S)c3ccccc3[nH]c2c1 [3-ATA, 3-amino-9-thio(10H)-acridone]	does not change the single-stranded DNA binding activity of the Ev1 protein	inhibits the single-stranded DNA catenation activity of the Ev1 protein
β-rubromycin	changes the binding manner of the Ev1 protein that binds to a single-stranded DNA	inhibits the single-stranded DNA catenation activity of the Ev1 protein
